Laboratory results reported in patent US9334235B2, “Plasmalogen compounds, pharmaceutical compositions containing the same and methods for treating diseases of the aging” (Phenomenome Discoveries Inc., priority 2008, dated 2016).
Each block holds one compound with its values, some of them ahead of it.

How the values were obtained:
ADAM10 = experiment: Immunoblotting of membrane-resident protein ADAM10 in HEK293 cells; assay type: cell-based, human
Method: (§1) HEK293 cells were treated as described in the amyloid assay. The cell pellet was washed in PBS and lysed in a RIPA buffer containing a protease inhibitor cocktail (Sigma, St. Louis, […].). Protein in the cell lysate was quantified using the Bio-Rad Protein Assay (Bio-Rad, Hercules, Calif.). The following antibodies were used for western analyses: APP (Calbiochem, Darmstadt, Germany), BACE1 and ADAM10 (Millipore, Temecula, Calif.), sAPPα (IBL, Gunma, Japan), SOAT1 (Santa Cruz Biotechnology Inc., CA), and β-actin (Sigma, St. Louis, […].). Immunoprecipitation was carried out to estimate sAPPα in the conditioned medium. Briefly, antibody to sAPPα was added to conditioned media and incubated for 16 hours at 4° C. IP was carried out by incubating with protein A/G agarose beads for 6 hours at 4° C. Beads were washed with PBS and the eluted proteins were detected by immunoblotting with anti-sAPPα antibody. Band intensities were quantified using Image Processing and Analysis in Java (ImageJ) software (National Institutes of Health, Bethesda, Md.)

sAPPα = experiment: Immunoprecipitation/immunoblot of sAPPα in conditioned medium of HEK293 cells; assay type: cell-based, human; details: 20 μM; cholesterol loaded HEK293 cells
Method: as §1

SOAT1 = experiment: Immunoblotting of membrane-resident protein SOAT1 in HEK293 cells; assay type: cell-based, human
Method: as §1

APP = experiment: Immunoblotting of APP in HEK293 cells; assay type: cell-based, human; details: wild-type HEK293 cells, not loaded with cholesterol
Method: as §1

HEK293 cells [1] = experiment: Cholesterol assay (free/esterified cholesterol) in HEK293 cells; assay type: cell-based, human; details: for membrane cholesterol (membrane free cholesterol levels): 20 μM
Method: (§2) Chinese hamster ovary (CHO), N-Rel^30 (a mutant CHO cell line deficient in the peroxisomal enzyme dihydroxyacetonephosphate acyltransferase), and human embryonic kidney (HEK293) cells were grown in 10 cm^2 dishes in DMEM/Ham's F12 (1:1) containing 10% FBS. Cells were incubated with plasmalogen precursors dissolved in ethanol (final ethanol concentration of 0.1%) and harvested for plasmalogen analysis by LC-MS-MS^31, and cholesterol and cholesterol ester analyses utilizing a commercial colorimetric kit (BioVision #K613).
(§3) HEK 293 cells, cultured in DMEM, 10% FBS at 37° C., 5% CO2, were seeded the day before the treatment. The following day, cells membranes were loaded with exogenous cholesterol at a concentration of 10 μg/ml media using methyl-β-cyclodextrin as the carrier to deliver cholesterol as described (Rong et al., 2003).
Cells were treated with the plasmalogen precursor PPI-1005 or with ethanol as the control. Cells were harvested after 48 hours using Versene: TryPLe express cocktail, washed with PBS. Lipids were extracted with chloroform containing 1% Triton X-100. The organic fraction was recovered and dried under a stream of nitrogen. The dried lipids were resuspended in cholesterol reaction buffer (Biovision, Mountain View, Calif.), and the total, free and esterified fractions of cholesterol were quantified using the cholesterol quantification kit (Biovision, Mountain View, Calif.) as per the manufacturer's recommendations. Cholesterol was initially calculated as μg/million cells, and reported as a percentage of control conditions for each experiment.

N-Rel cells [2] = experiment: Membrane cholesterol and cholesterol ester analysis (colorimetric kit) in N-Rel cells; assay type: cell-based, Chinese hamster; details: for membrane cholesterol esters (esterified cholesterol) / membrane free cholesterol: 20 μM, 48 hr incubation; for membrane cholesterol levels: N-Rel cells
Method: as §2

N-Rel cells [3] = experiment: Plasmalogen analysis by LC-MS/MS in N-Rel cells incubated with plasmalogen precursors; assay type: cell-based, Chinese hamster; details: for conversion to PlsEtn species: cells with impaired plasmalogen biosynthesis capacity (N-Rel)
Method: as §2

CHO cells = experiment: Plasmalogen analysis by LC-MS/MS in CHO cells incubated with plasmalogen precursors; assay type: cell-based, Chinese hamster; details: for DHA plasmalogens in CHO cells: 72 hr, relative to CHO controls; for conversion to PlsEtn species: cells with unimpaired plasmalogen biosynthesis capacity (CHO)
Method: as §2

HEK293 cells [4] = experiment: Amyloid assay: Aβ secreted into conditioned medium of HEK293 cells (ELISA); assay type: cell-based, human; details: for levels of AB-40 / levels of AB-42: normal cells and cholesterol loaded cells
Method: as §3
HEK293 cells were loaded with exogenous cholesterol as described, and treated with a PPI 1005 or with ethanol as a control. Conditioned media from the treated cells was collected at the end of a 48 hour incubation period. For assaying Aβ1-42 content, the conditioned media was enriched using Amicon ultracentrifugal filter devices (Millipore, Billerica, Mass.) prior to loading into the microplate. ELISA was carried out as per the manufacturer's recommendations (Covance Labs, Princeton, N.J.). The reactions were quenched 25 minutes after addition of the substrate, and the absorbance was read at 495 nm. The experiment was carried out in triplicate. Values were calculated as pg/ml of conditioned media, and were normalized to the amount of Aβ detected in the conditioned media from untreated, cholesterol loaded control HEK293 cells.

BACE1 = experiment: Immunoblotting of BACE1 (β-secretase) in HEK293 cells; assay type: cell-based, human
Method: as §1

[5] = Oral dosing of rabbits: liver plasmalogens and DHA; assay type: in vivo, New Zealand rabbits; details: 200 mg/kg orally; 12, 18, 24 and 48 hours
Method: (§4) Male New Zealand rabbits (1.8-2.5 kg) were orally dosed with PPI-1011, neat in hard gelatin capsules (size 3). For time course studies, rabbits were dosed with 200 mg/kg of PPI-1011 and animals sacrificed via euthenol overdose at 1, 3, 6, 12, 18, 24 and 48 hr. Blood was collected by cardiac puncture and plasma frozen at −70° C. for later analysis. Kidney and liver also were harvested and stored at −70° C. for later analysis. These studies were conducted as 2 experiments with overlapping groups at 12 hrs (Exp. 1: 1, 3, 6, and 12 hrs; Exp. 2: 12, 18, 24 and 48 hrs). Controls were harvested at each timepoint. Plasmalogens and lipids were extracted and analyzed by LC-MS/MS as previously reported (Goodenowe et al., 2007).

[6] = Oral dosing of rabbits: kidney plasmalogens and DHA; assay type: in vivo, New Zealand rabbits; details: 200 mg/kg orally; 1, 3, 6 and 12 hours
Method: as §4

[7] = Oral dosing of rabbits: plasma plasmalogens, phosphatidylethanolamines and DHA by LC-MS/MS; assay type: in vivo, New Zealand rabbits
Method: as §4

[8] = cholesterol loaded HEK293 cells (FIG. 18A)
[9] = wild-type HEK293 cells, not loaded with cholesterol

SMILES: CC/C=C\C/C=C\C/C=C\C/C=C\C/C=C\C/C=C\CCC(=O)OC(CO)COCCCCCCCCCCCCCCCC (stereo not shown) [PPI-1005]
increase in ADAM10 (ADAM10; [8]): 63% | concentration-dependent increase in abundance of ADAM10 (ADAM10; [9]): 35% | increase in sAPPα species in the conditioned medium (sAPPα): 73% | SOAT1 upregulation compared with the cholesterol loaded condition (SOAT1; [8]): approximately 25% | concentration-dependent increase in abundance of SOAT1 (SOAT1; [9]): 50% | APP abundance (APP): No change | membrane cholesterol (membrane free cholesterol levels) (HEK293 cells [1]; 48 hr incubation): decrease | free cholesterol content of the cell membrane (HEK293 cells [1]; cholesterol loaded HEK293 cells, 48 hours): significantly reduced | membrane cholesterol esters (esterified cholesterol) (N-Rel cells [2]): increases | membrane free cholesterol (N-Rel cells [2]): decreases | membrane cholesterol levels (N-Rel cells [2]): significant reduction | levels of total DHA plasmalogens in N-Rel cells, relative to control CHO cells (N-Rel cells [3]; 72 hr incubation): restored in a concentration-dependent manner | DHA-PlsEtn level (N-Rel cells [3]; N-Rel cells): 80 % of control values | conversion to PlsEtn species (N-Rel cells [3]): effectively converted to PlsEtn species | DHA plasmalogens in CHO cells (CHO cells): concentration-dependent (72 hr) increase | conversion to PlsEtn species (CHO cells): effectively converted to PlsEtn species | basal and cholesterol (25.8 μM)-stimulated Aβ42 secretion (HEK293 cells [4]; 20 μM): decreases | Aβ42 content in the conditioned medium, drop below cholesterol-loaded levels (HEK293 cells [4]; 20 μM, cholesterol loaded HEK293 cells, 48 hour incubation): 70% | levels of AB-40 (HEK293 cells [4]): decreased | levels of AB-42 (HEK293 cells [4]): decreased | β-secretase abundance (BACE1; 20 μM, cholesterol loaded HEK293 cells): restored to normal levels | BACE I abundance (BACE1; [9]): No change

SMILES: CC/C=C\C/C=C\C/C=C\C/C=C\C/C=C\C/C=C\CCC(=O)OC(COCCCCCCCCCCCCCCCC)COC(=O)CC(C[N+](C)(C)C)OC(C)=O (stereo not shown) [PPI-1009, 2-acetoxy-4-(2-((4Z,7Z,10Z,13Z,16Z,19Z)-docosa-4,7,10,13,16,19-hexaenoyloxy)-3-(hexadecyloxy)propoxy)-N,N,N-trimethyl-4-oxobutan-1-aminium]
membrane cholesterol levels, concentration response (HEK293 cells [1]; 48 hr incubation): concentration-dependently decrease | membrane cholesterol esters (esterified cholesterol) (N-Rel cells [2]): augmentation | membrane free cholesterol (N-Rel cells [2]): most robust decreases | membrane cholesterol levels (N-Rel cells [2]): concentration-dependently decrease | time course of incorporation into plasmalogens (N-Rel cells [3]; 10 μM, 0, 6, 12, 24, 48 and 72 hr): incorporation into plasmalogens | cellular levels of chimyl alcohol or the associated alkenyl-acyl-glycerol (N-Rel cells [3]; 10 μM, 0-72 hr, chimyl alcohol by GC-MS): lack of effect | conversion to PlsEtn species (N-Rel cells [3]): effectively converted to PlsEtn species | DHA plasmalogens in CHO cells (CHO cells): concentration-dependent (72 hr) increase | conversion to PlsEtn species (CHO cells): effectively converted to PlsEtn species | basal and cholesterol (25.8 μM)-stimulated Aβ42 secretion (HEK293 cells [4]; 10 μM): acted in a similar manner | levels of AB-40 (HEK293 cells [4]): decreased | levels of AB-42 (HEK293 cells [4]): decreased

SMILES: CCCCCCCCCCCCCCCCOCC(O)CO (stereo not shown) [chimyl alcohol, reference compound]
DHA-plasmalogens in N-Rel cells (N-Rel cells [3]; expressed relative to N-Rel controls): increased | DHA plasmalogens in CHO cells (CHO cells): no effect

SMILES: CCC=CCC=CCC=CCC=CCC=CCC=CCCC(=O)OC(CO)COCCCCCCCCCCCCCCCCCC (stereo not shown) [18:0/DHA glycerol]
membrane cholesterol (membrane free cholesterol levels) (HEK293 cells [1]; 48 hr incubation): decrease

steady-state levels of circulating DHA ([7]; dose of 1000 mg/kg versus 500 mg/kg): did not further increase | deacylation at sn-2, releasing docosahexaenoic acid (DHA) ([7]; oral dose of 200 mg/kg): observed | oral bioavailability ([7]; rabbit): orally bioavailable
SMILES: CC/C=C\C/C=C\C/C=C\C/C=C\C/C=C\C/C=C\CCC(=O)OC(COCCCCCCCCCCCCCCCC)COC(=O)CCCC[C@@H]1CCSS1 (stereo partly drawn) [PPI-1011, (4Z,7Z,10Z,13Z,16Z,19Z)-1-(5-((R)-1,2-dithiolan-3-yl)pentanoyloxy)-3-(hexadecyloxy)propan-2-yl docosa-4,7,10,13,16,19-hexaenoate]
tissue plasmalogens and DHA in rabbit liver [5]: augmentation | tissue plasmalogens and DHA in rabbit kidney [6]: augmentation | new steady-state level of plasma plasmalogens and phosphatidylethanolamines versus dose ([7]; 6 hours after oral doses of 10, 75, 200 mg/kg): dose-dependent manner from 10 to 200 mg/kg | steady-state levels of plasmalogens and phosphatidylethanolamines above that obtained with 200 mg/kg ([7]; further increases in dose (500, 1000 mg/kg), 6 hours): did not increase | reference phosphatidylethanolamine 16:0/18:0 in plasma ([7]; oral dose of 200 mg/kg): No change | incorporation into circulating plasmalogens ([7]; oral dose of 200 mg/kg, rabbit plasma): incorporated into circulating plasmalogens

SMILES: CC/C=C\C/C=C\C/C=C\C/C=C\C/C=C\C/C=C\CCC(=O)OC(COCCCCCCCCCCCCCCCC)COC(=O)C(CS)NC(C)=O (stereo not shown) [PPI-1014, (4Z,7Z,10Z,13Z,16Z,19Z)-1-(2-acetamido-3-mercaptopropanoyloxy)-3-(hexadecyloxy)propan-2-yl docosa-4,7,10,13,16,19-hexaenoate]
incorporation in N-Rel ethanolamine plasmalogens (PlsEtn) and phosphatidylethanolamines (PtdEtn) (N-Rel cells [3]; 72 hours, 5, 10 and 20 μM): structure-specific and concentration-dependent incorporation

SMILES: CCC=CCC=CCC=CCC=CCC=CCC=CCCC(=O)OC(CO)COC(=O)CCCCCCCCCCCCCCC (stereo not shown) [16:0*:DHA glycerol, reference compound]
membrane cholesterol (membrane free cholesterol levels) (HEK293 cells [1]; 48 hr incubation): inactive | membrane free cholesterol (N-Rel cells [2]): inactive
